# Data from patent publication US9895407B2, “Disinfecting formulations and uses thereof” (Sunny Wipes Pty Ltd, priority 2011, dated 2018).
# “And” between values parts separate entries of the source, which are not always exact repeats. Equal entries are not always repeated.
# Key:
# [1] = test system: Escherichia coli (NCTC 10538); test: Hygienic handwash/handrub test, EN 1500:1997, artificially contaminated hands; format: in vivo; conditions: N = 14 subjects
# [2] = test system: Escherichia coli (NCTC 10538); test: as above; format: in vivo; conditions: 60 second rub
# From the text: The protocol is based upon European standard EN 1500:1997 designed for testing “Chemical disinfectants and antiseptics—Hygienic handwash”. The subjects (15 volunteers with clean and healthy hands that were free of cuts and abrasions and having short, clean fingernails) were split into two approximately equal groups which were alternately treated with the standard formulation or the test formulation initially and then the other formulation, separately by a one day. The hands of the subjects were initially washed for 1 min with soap and water and dried with paper towel. […] Excess fluid was allowed to drain back into the container. Hands were air dried for 3 minutes, holding them in a horizontal position. Each subject was encouraged to rotate their hands to avoid the formation of droplets. Each subject was treated from the same batch of contamination fluid. After drying, fingertips and thumb were rubbed for 1 minute on the base of a Petri-dish, which contained 10 mL of TSB. A separate Petri-dish for each hand (Left and Right) was used. This was the Pre-value. Dilutions of 10^−4 and 10^−5 were prepared using sterile Peptone Water (PEP). Each dilution was spread onto pre-poured, dried TSA plates. […] This procedure was completed with a 5 second rinse of fingers under running tap water. For the test formulation, 3 mL of test product was dispensed onto the subject's hands and rubbed over for 30 seconds using the standard procedure as instructed. This was done twice to give total of 6 mL test product over 60 second rub. The test product procedure was completed with a 5 seconds rinse of fingers under running tap water. […] Dilutions of 10^0, 10^−1 and 10^−2 were spread on pre-poured and dried TSA plates. All plates were incubated at 36° C.±2° C. for 24-48 hours. After the incubation period, all the plates were checked and colony forming units on both standard and test sample were counted. Dilutions with counts that are within 15-300 cfu were used in the computation. Plates showing less than 15 cfu or no growth were also counted. […] The test culture used in this study was obtained from the University of New South Wales Culture Collection—Escherichia coli (NCTC 10538) A neutralizer validated according to prEN 12054 were incorporated in the sampling fluids and diluents for the assessment of post-values in both test and reference procedure. […] The test organism was freshly revived from frozen protect beads by sub culturing in two McCartney bottles containing 5 mL of TSB. They were incubated at 37° C. These cultures are then inoculated into two bottles containing 1 L TSB. They were incubated at 37° C. for 18-24 hours The cultures were pooled into a sterile bottle to prepare the bacterial suspension. […] For testing this product, a cross-over design was used. […]
# hand microflora = test: Surgical handrub test, EN 12791:2005; format: in vivo, human; conditions: 5 volunteers, 60 seconds exposure, right hand under sterile glove for 3 hours
# Procedure: The protocol is based upon European standard EN 12791:2005 designed for testing “Chemical disinfectants and antiseptics—Surgical hand disinfectant”.
# The clean and healthy hands (free of cuts and abrasions and with short, clean fingernails) of 5 volunteers were initially washed for 1 min with soap and water and dried with paper towel. To establish base line flora levels the fingertips and thumb were rubbed for 1 minute on the base of a petri dish containing 10 ml of Tryptone Soy Broth (TSB). A separate petri dish was used for each hand. Dilutions of 10^−2 and 10^−3 were prepared from the TSB that were assayed by the pour-plate method using Tryptone Soy Agar (TSA) plates.
# Immediately after sampling for the baseline and without recontamination of the hands the subjects performed the handrub test. The subjects were split into two groups which were alternately treated with the standard formulation or the test formulation initially and then the other formulation, separately by a week to allow re-colonisation of native flora. […]
# Log10, values for immediate effect and sustained effect were then determined and a Log Reduction Factor for both test formulation and standard formulation were calculated based on the average difference between the log10 pre-value and the log10 post-value in each subject.
# [3] = per subject and hand, duplicate plates, 2 x 3 mL
smiles,measurement,setting,value
"CC(C)O [60% propan-2-ol, propan-2-ol]","Log Y, average of subjects",[1],1.97
same,Postvalues,"[2]; per subject and hand (L/R), after 2 x 3 mL",625 and 5 (3×) and 0 (2×) and 235 (2×) and 455 and 52 and 127 and 240 and 1415 and 2050 and 5950 and 4 and 165 and 125 and 690 and 250 and 210 and 21 and 61 and 30 and 74 and 7 and 22 and 1530
same,"Number of cfu per plate, Postvalues, dilution 10^-0",[2]; [3],TNTC/TNTC (14×) and 42/41 and 0/0 (3×) and 5/4 and 58/46 and 134/120 and 4/3 and 5/5 and 246/275 and 232/182 and 19/22 and 54/69 and 86/62 and 3/10 and 21/22
same,"Number of cfu per plate, Postvalues, dilution 10^-1",[2]; [3],108/94 and 9/3 and 177/129 and 62/63 and 1/0 and 5/3 and 0/0 (6×) and 20/27 and 50/41 and 2/0 and 26/22 and 141/142 and TNTC/TNTC (2×) and 0/5 and 18/15 and 9/16 and 17/30 and 62/76 and 26/24 and 19/23 and 8/8 and 1/5 and 1/11 and 1/2
same,"Number of cfu per plate, Postvalues, dilution 10^-2",[2]; [3],5/16 and 0/3 and 11/19 and 2/4 and 0/0 (12×) and 0/1 (2×) and 2/1 and 3/9 and 7/3 and 11 cfu and 16/ cfu and 56/ cfu and 0/2 and 1/0 and 10/9 and 17 cfu and 1/2 and 3/5
"CCCO [60% propan-1-ol, propan-1-ol]","reduction of hand microflora, after 3 hours",hand microflora,1.89 Logs
